Source: publication PMC8151276, “An Integrated Approach toward NanoBRET Tracers for Analysis of GPCR Ligand Engagement” (Molecules, 2021)

Target: T1, ADRA1B (Homo sapiens, UniProt P35368)
T1 construct: purchased Promega (in-house HiBiT-GPCR construct library, NanoBRET)
T1 sequence (P35368 1-520): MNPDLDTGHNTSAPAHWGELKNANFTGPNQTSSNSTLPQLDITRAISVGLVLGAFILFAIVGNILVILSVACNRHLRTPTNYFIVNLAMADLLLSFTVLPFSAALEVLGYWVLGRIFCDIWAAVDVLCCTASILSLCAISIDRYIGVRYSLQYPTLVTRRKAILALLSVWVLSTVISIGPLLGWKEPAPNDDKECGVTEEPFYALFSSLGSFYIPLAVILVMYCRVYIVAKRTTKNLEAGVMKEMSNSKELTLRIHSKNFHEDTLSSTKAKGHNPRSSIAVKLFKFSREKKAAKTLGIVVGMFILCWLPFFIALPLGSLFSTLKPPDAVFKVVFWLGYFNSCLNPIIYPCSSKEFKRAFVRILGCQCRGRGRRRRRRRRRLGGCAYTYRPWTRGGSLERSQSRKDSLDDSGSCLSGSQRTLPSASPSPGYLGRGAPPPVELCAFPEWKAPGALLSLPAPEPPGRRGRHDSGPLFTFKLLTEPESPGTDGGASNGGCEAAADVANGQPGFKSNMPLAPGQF
Assay: NanoBRET screen HiBiT-ADRA1B in HEK293
Format: binding
Procedure: Each tracer candidate was screened across the entire library of HiBiT-GPCR constructs using NanoBRET as the detection modality. As depicted in Figure 4A, the specificity of interactions was evaluated through decrease in BRET due to competitive displacement of a bound tracer by excess parental compound. Each tracer was analyzed for binding to each HiBiT-GPCR fusion in the absence and in the presence of competing parental compound. Briefly, HEK293 cells were transfected with HiBiT-GPCR constructs diluted into promoterless DNA to reduce expression and maximize translocation to the cell surface. Each tracer candidate was then screened at concentrations of 1 μM and 0.1 μM across cells expressing these fusions. Cells were treated for 1.5 h with tracer either alone or in the presence of 20 μM competing parental compound (i.e., control). BRET was measured upon addition of purified LgBiT and subsequent complementation with HiBiT genetically fused to a GPCR. The specificity of interactions was assessed through a decrease in BRET signal due to competitive displacement of the bound tracer. To further gauge the robustness of these interactions, the fold response over the control (i.e., BRETtracer/BRETcontrol) was calculated. We chose a 1.5-fold response, which translates to ≥7-fold signal over noise as the minimal threshold required to score an interaction as positive.
HiBiT-GPCR DNA constructs were diluted in 10 mM Tris pH 8 to a final concentration of 0.01 μg/μL, arrayed in 96-well plates and stored at −20 °C. For transfection, HEK293 cells were suspended in Opti-MEM (without phenol red) supplemented with 2% fetal bovine serum (Seradigm) and 100 units/mL penicillin–streptomycin (Gibco) at a final concentration of 220,000 cells/mL and dispensed into white 96-well plates at 90 μL/well. Subsequent transfections and screens were carried using an Agilent Bravo Automated Liquid Handling Platform. First, the 96-well HiBiT DNA arrays were diluted 25-fold in Opti-MEM (without serum or phenol red) to a final concentration of 0.0004 μg/μL and 20 μL of the diluted DNAs were transferred into new 96-well plates. Next, promoterless carrier DNA (1 μg/μL) was diluted 25-fold (0.04 μg/μL) and then dispensed into the diluted arrays at 20 μL/well. Following brief mixing, Viafect transfection reagent (Promega) diluted 16-fold into Opti-MEM was dispensed into the plates at 40 μL/well. After mixing by pipetting, plates were incubated for 10 min on the pipetting station deck. The DNA-transfection reagent complexes were then added to plates containing cells. To facilitate the screen, 10 μL of DNA-transfection reagent complexes were added in duplicates to the top 4 and bottom 4 rows, resulting in two identical 48-well arrays per plate. Plates with transfected cells were incubated for 18–20 h at 37 °C/5% CO2. A screen of each tracer across the entire library using two different concentrations requires duplicate plates of transfected cells. Depending on the number of tracers being screened, transfections can be scaled up using the same ratios. The next day, for each tracer, four 20× screening solutions in tracer dilution buffer (Promega) were prepared: two duplicates at final concentration of 20 μM and two duplicates at a final concentration of 2 μM. […] The four resulting solutions were diluted 4-fold in Opti-MEM without serum or phenol red to generate 5× solutions (5 µM and 0.5 µM tracer +/− 100 μM competing compound). To screen the library, a BioTek MultiFlo FX liquid dispenser was used to dispense 22.5 µL of tracer solution to the top 4 rows and 22.5 µL tracer + competing compound solution to the 4 bottom rows. Plates were briefly mixed on an orbital shaker and incubated for 1.5 h at room temperature. […] Plates were briefly mixed on an orbital shaker and incubated for 15 min to allow complementation.

Compound	NanoBRET Fold Response (ADRA1B, tracer 0.1μM)	NanoBRET Fold Response (ADRA1B, tracer 1μM)	further results
CN(C)CCC=C1c2ccccc2CCc2ccc(C(=O)NCCNC(=O)CCOCCOCCOCCOCCNC(=O)CCc3ccc4n3[B-](F)(F)[N+]3=C(c5ccc[nH]5)C=CC3=C4)cc21 [Amitriptyline-b-2-NB590]			NanoBRET Fold Response (tracer at 0.1μM, listed as amitriptyline-b-2-NB590): 1.73; NanoBRET Fold Response (tracer at 1μM, listed as amitriptyline-b-2-NB590): 1.67
CCOC(=O)c1cc(C#N)c(N2CCC(C(=O)NS(=O)(=O)Cc3ccccc3/C=C/C(=O)NCCNC(=O)CCc3ccc4n3[B-](F)(F)[N+]3=C(c5ccc[nH]5)C=CC3=C4)CC2)nc1C [AZD1283-1-NB590]			NanoBRET Fold Response (ADRA1B, 0.1μM): 1.08; NanoBRET Fold Response (ADRA1B, 1μM): 1.06
CC(C)N(CC[C@H](c1ccccc1)c1cc(CCNC(=O)CCOCCOCCOCCOCCNC(=O)CCc2ccc3n2[B-](F)(F)[N+]2=C(c4ccc[nH]4)C=CC2=C3)ccc1O)C(C)C [Tolterodine-2-NB590]	1.16	1.06	
CC(C)N(CC[C@H](c1ccccc1)c1cc(CCNC(=O)c2ccc(CNC(=O)CCc3ccc4n3[B-](F)(F)[N+]3=C(c5ccc[nH]5)C=CC3=C4)cc2)ccc1O)C(C)C [Tolterodine-BZ-NB590]	1.17	1.05	
O=C(CCOCCOCCOCCOCCNC(=O)CCc1ccc2n1[B-](F)(F)[N+]1=C(c3ccc[nH]3)C=CC1=C2)NCCCN1CCN(C2=Nc3ccccc3Oc3ccc(Cl)cc32)CC1 [Loxapine-a-2-NB590]	1.78	1.54	
CN(C)CCC=C1c2ccccc2CCc2ccc(C(=O)NCCNC(=O)CCOCCOCCOCCOCCNC(=O)CCc3ccc4n3[B-](F)(F)[N+]3=C(c5ccc[nH]5)C=CC3=C4)cc21 [Amitriptyline-a-2-NB590]			NanoBRET Fold Response (tracer at 0.1μM): 1.19; NanoBRET Fold Response (tracer at 1μM): 1.46
COc1ccc2[nH]c(-c3ccc(CNC(=O)CCOCCOCCOCCOCCNC(=O)CCc4ccc5n4[B-](F)(F)[N+]4=C(c6ccc[nH]6)C=CC4=C5)cc3)c(CCNC(C)=O)c2n1 [AzomelatoninICO9-2-NB590]			NanoBRET Fold Response (0.1μM tracer): 0.91; NanoBRET Fold Response (1μM tracer): 0.97
COc1ccccc1N1CCN(CCCCN2C(=O)c3ccc(CNC(=O)CCOCCOCCOCCOCCNC(=O)CCc4ccc5n4[B-](F)(F)[N+]4=C(c6ccc[nH]6)C=CC4=C5)cc3C2=O)CC1 [NAN-190-2-NB590]	1.80	1.59	
O=C(CCc1ccc2n1[B-](F)(F)[N+]1=C(c3ccc[nH]3)C=CC1=C2)NCCOCCOCCNC(=O)OCCOCCN1CCN(C2=Nc3ccccc3Sc3ccccc32)CC1 [Quetiapine-a-2-NB590]	1.52	1.59	
O=C(CCOCCOCCOCCOCCNC(=O)CCc1ccc2n1[B-](F)(F)[N+]1=C(c3ccc[nH]3)C=CC1=C2)NCCCN1CCN(C2=Nc3cc(Cl)ccc3Nc3ccccc32)CC1 [Clozapine-a-2-NB590]			NanoBRET Fold Response (ADRA1B, 0.1μM tracer): 1.65; NanoBRET Fold Response (ADRA1B, 1μM tracer): 1.52
N#CN=C(NCCCOc1cccc(CN2CCCCC2)c1)NCCNC(=O)CCOCCOCCOCCOCCNC(=O)CCc1ccc2n1[B-](F)(F)[N+]1=C(c3ccc[nH]3)C=CC1=C2 [Aminopotentidine-2-NB590]	1.10	1.01	
O=C(CCc1ccc2n1[B-](F)(F)[N+]1=C(c3ccc[nH]3)C=CC1=C2)NCc1ccc(C(=O)NCCOCCOCCNCC(O)COc2cccc3ccccc23)cc1 (stereo not shown) [Propranolol-3-NB590]			NanoBRET Fold Response (ADRA1B, 0.1μM): 1.14; NanoBRET Fold Response (ADRA1B, 1μM): 1.10
O=C(CCc1ccc2n1[B-](F)(F)[N+]1=C(c3ccc[nH]3)C=CC1=C2)NCc1ccc(C(=O)NCCOCCC(=O)N[C@@H]2CC[C@@]3(O)[C@H]4Cc5ccc(O)c6c5[C@@]3(CCN4CC3CC3)[C@H]2O6)cc1 [Naltrexone-3-NB590]	0.53	0.79	
COc1ccccc1N1CCN(CCCCN2C(=O)c3ccc(CNC(=O)CCOCCNC(=O)c4ccc(CNC(=O)CCc5ccc6n5[B-](F)(F)[N+]5=C(c7ccc[nH]7)C=CC5=C6)cc4)cc3C2=O)CC1 [NAN-190-3-NB590]	1.70	1.72	
Cc1cc2c(s1)Nc1ccccc1N=C2N1CCN(CCCNC(=O)CCOCCOCCOCCOCCNC(=O)CCc2ccc3n2[B-](F)(F)[N+]2=C(c4ccc[nH]4)C=CC2=C3)CC1 [Olanzapine-a-2-NB590]	1.26	1.98	
CCCn1c(=O)c2[nH]c(-c3ccc(OCC(=O)NCCNC(=O)CCOCCNC(=O)c4ccc(CNC(=O)CCc5ccc6n5[B-](F)(F)[N+]5=C(c7ccc[nH]7)C=CC5=C6)cc4)cc3)nc2n(CCC)c1=O [XAC-3-NB590]	1.05	1.17	
N#CN/C(=N\CCNC(=O)c1ccc(N)cc1)NCCCOc1cccc(CN2CCCCC2)c1 [Aminopotentidine (unmodified)]			NanoBRET Fold Response (ADRA1B, other tracers/Aminopotentidine (unmodified), 0.1μM): 1.03; NanoBRET Fold Response (ADRA1B, other tracers/Aminopotentidine (unmodified), 1μM): 0.99
CN(CCC=C1c2ccccc2CCc2ccccc21)C(=O)CCOCCOCCOCCOCCNC(=O)CCc1ccc2n1[B-](F)(F)[N+]1=C(c3ccc[nH]3)C=CC1=C2 [Amitriptyline-e-2-NB590]			NanoBRET Fold Response (tracer at 1μM): 1.04
COc1ccc2c(n1)c(CCNC(C)=O)cn2CCNC(=O)CCc1ccc2n1[B-](F)(F)[N+]1=C(c3ccc[nH]3)C=CC1=C2 [Azamelatonin-1-NB590]			NanoBRET Fold Response (0.1μM tracer): 0.97; NanoBRET Fold Response (1μM tracer): 0.88
